{"source": "patent US12357641B2", "about": "“Identification of oleanolic acid and plant extract for glucose-6-phosphate dehydrogenase-related disorders including Bag3opathy” (Hong Kong Baptist University, priority 2022, dated 2025)", "key": {"G6PD [1]": {"system": "G6PD", "assay": "Oleanolic acid treatment in Bag3opathy patient: serum G6PD protein by ELISA", "format": "in vivo, human", "details": "oral capsules 180 mg/day for three months, before treatment 0.09 ng/mL, normal girls 7.25±9.38 ng/mL", "description": "The concentration of G6P in serum was determined by High Sensitivity G6P Assay Kit (Catalog #: K687-100, BioVision, Inc. USA) following the manufacturer's instruction. Briefly, a volume of 200 μL of samples was deproteinized with 10 kDa MWCO spin filter prior to the reaction. After adding 50 μL of the appropriate reaction mix into each 50 μL of filtrate, the reaction was incubated for 5 min at 37° C. and protected from light. Finally, the concentration of G6P was calculated according the fluorescence intensity (λex=535/λem=587) measured by fluorometer (EnVision 2104 Multilabel Reader, PerkinElmer, USA). The serum levels of G6PD (SEA716Hu, Cloud-Clone Corp), GPI, catalase (CAT), thioredoxin (TXN), and superoxide dismutase 1 (SOD1) were measured by Elisa Kits purchased from Cloud-Clone Crop Inc. (USA). Serum samples were diluted 100 folds in PBS for measurements of CAT and TXN, and were diluted 800 folds for SOD1 test. The activity of PGM was determined by Colorimetric Assay Kit from BioVision (Inc. USA). Samples were prepared and measured at 450 nm by Elisa reader (Benchmark Plus, BioRad, USA) depending on the manufacturer's instructions.\nThe Bag3opathy patient (body weight of patient: 40 kg) was orally administrated with Chinese medicine supplements containing oleanolic acid (180 mg per day) to evaluate the effects of treatment on BAG3 associated MFM for 3 months. […]"}, "G6PD [2]": {"system": "G6PD", "assay": "Oleanolic acid treatment in normal mice: G6PD protein by ELISA in serum, heart muscle and skeletal muscle", "format": "in vivo, mouse", "details": "for G6PD protein in heart muscle: control 0.36±0.26 ng/mg; for G6PD protein level in serum: control 1.79±0.99 ng/mL", "description": "BAG3 P209-KI mice were reproduced by mating between the P209L/+ male and female mice. All mice were maintained with free access to food and water in plastic cages at 22±2° C. and kept on a 12-h light/dark cycle. Animal welfare and experimental procedures were carried out in accordance with the related ethical regulations of Yunnan Minzu University. […] Heart muscle and skeletal muscle samples were obtained after cardiac perfusion with cold PBS. Muscle tissues were lysed into homogenate in ice-cold lysis buffer (150 mM NaCl, 50 mM Tris, pH7.5, 1% NP-40, 0.1% sodium deoxycholate) plus 1 mM PMSF. Samples were then sonicated on ice and centrifuged at 10,000 g for 5 min. The concentration of G6PD in serum, heart muscle, and skeletal muscle were determined by G6PD Elisa Kit (Catalog #: SEA716Mu, Cloud-Clone Corp. USA) following the manufacturer's instruction. The plate was read at 450 nm by the microplate reader (iMark, Biorad, USA). The concentration of the total protein from tissue samples was determined by the spectrophotometer (NanoDrop One, Thermo Scientific, USA).\nSeventeen normal male C57BL/6 mice, 6-8 weeks of age, were purchased from Hunan SJA Laboratory Animal Co., Ltd (Changsha, China). They were maintained with free access to food and water in plastic cages at 22±2° C. and kept on a 12-h light/dark cycle. Animal welfare and experimental procedures were carried out in accordance with the related ethical regulations of Yunnan Minzu University. Mice were randomly divided into one control group (n=6) and two dug treatment groups (n=5, 6). Oleanolic acid was suspended in 0.5% carboxymethylcellulose sodium (CMC-Na) solution with the concentration of 10 and 2.5 mg/mL. In the control and drug treatment groups, 0.5% CMC-Na and oleanolic acid (50, 200 mg/kg/day) was given orally for 10 days, respectively. On the 11th day, mice were sacrificed, and the serum and tissue samples were prepared and detected as the method described previously."}, "[3]": {"system": "creatine kinase-MB (CK-MB)", "assay": "Oleanolic acid treatment in Bag3opathy patient: creatine kinase-MB (cardiac marker) in blood", "format": "in vivo, human", "details": "oral capsules 180 mg/day for three months, before treatment 24 U/L", "description": "The Bag3opathy patient (body weight of patient: 40 kg) was orally administrated with Chinese medicine supplements containing oleanolic acid (180 mg per day) to evaluate the effects of treatment on BAG3 associated MFM for 3 months. 3 mL serum was collected for analysis before and after the treatment. The trial was approved the Ethics Committee of Hong Kong Baptist University (HASC/15-16/0268) according to the principles of the Declaration of Helsinki, and obtained the consent form."}}, "data": [{"smiles": "CC1(C)CC[C@]2(C(=O)O)CC[C@]3(C)C(=CC[C@@H]4[C@@]5(C)CC[C@H](O)C(C)(C)[C@@H]5CC[C@]43C)[C@@H]2C1", "note": "[oleanolic acid, Oleanolic acid]", "values": [{"measurement": "serum G6PD protein after treatment", "setting": "G6PD [1]", "value": 2.43, "unit": "ng/mL"}, {"measurement": "G6PD protein in skeletal muscle", "setting": "G6PD [2]; oral 50 mg/kg daily for ten days, control 0.11±0.04 ng/mg, p=0.035", "value": "0.19 ± 0.04", "unit": "ng/mg"}, {"measurement": "G6PD protein in heart muscle", "setting": "G6PD [2]; oral 50 mg/kg daily for ten days, p=0.36", "value": "0.54 ± 0.32", "unit": "ng/mg"}, {"measurement": "G6PD protein level in serum", "setting": "G6PD [2]; oral 50 mg/kg daily for ten days, p=0.140", "value": "3.74 ± 1.91", "unit": "ng/mL"}, {"measurement": "G6PD protein in heart muscle", "setting": "G6PD [2]; oral 200 mg/kg daily for ten days, p=0.011", "value": "0.93 ± 0.43", "unit": "ng/mg"}, {"measurement": "G6PD protein level in serum", "setting": "G6PD [2]; oral 200 mg/kg daily for ten days, p=0.049", "value": "4.47 ± 3.07", "unit": "ng/mL"}, {"measurement": "creatine kinase-MB (CK-MB) after treatment", "setting": "[3]", "value": 16, "unit": "U/L"}]}]}
